Test results from patent US5147876A, “2,6-di,2,4,6-, 2,5,6-tri and 2,4,5,6-tetra-substituted pyrimidines, their pharmaceutically acceptable salts, pharmaceutical compositions containing same and their use in the treatment of neurological diseases” (Mitsui Petrochemical Industries, Ltd., priority 1988, dated 1992).

Legend:
[1] = Acute toxicity on mice; assay type: in vivo; settings: mouse, in vivo, ip, 24 hours after administration; read-out: Estimated LD50
Protocol: The acute toxicity of the compounds of the invention was examined by the following method.
Male ddy-strain 5-week old mice, 4-6- per group, were used as experimental animals. Each of the compounds was intraperitoneally (i.p.), and the toxicity of the compound was assessed 24 hours after the administration.

[2] = test system: neuro-2a (mouse neuroblastoma cells); assay: Action on neuro-2a: proportion of cells containing outgrown neurites; assay type: cell-based; settings: mean ± S.D.
Protocol: The effects of the compounds of this invention on neuroblastoma cells were examined by the following method.
Mouse neuro 2a cells in the logarithmic growth period in the Dulbecco's modified Eagle's medium DMEM, containing 100 units/ml of penicillin G sodium and 100 micrograms/ml of streptomycin sulfate]containing 10 % of FCS were seeded in a 48-well plate so that the number of cells was 1,000 cells/well, and cultured for one day in 0.25 ml of the culture fluid in each well in an incubator containing 5 % of carbon dioxide gas in air at 37° C. Then, a 4 % aqueous glutaraldehyde solution in the same amount as a medium (0.25 ml) was added, and the culture fluid was left to stand at room temperature for 2 hours to fix the cells. After washing with water, a 0.05 % aqueous solution of methylene blue was added to stain the cells Under a microscope, the number of cells containing outgrown neurites (cells having at least one neurite with a length of at least two times as large as the long diameter of the cell) was counted visually, and the proportion of these cells in the entire cells was calculated. The well was observed over 5 or more visual fields (at least 2 % of the entire surface area of the well) continuous to the left and right from a mark put at the center of the well, and more than 200 cells was counted. One drug compound was used in 6 different concentrations at most, and three runs were conducted for each concentrations.

SMILES | LD50 at 24 h [1] | Number of cells having neurites with a length at least two times the diameter of each cell/total number of cells ([2]; 0.03 mM) | Number of cells having neurites with a length at least two times the diameter of each cell/total number of cells ([2]; 0.1 mM) | Number of cells having neurites with a length at least two times the diameter of each cell/total number of cells ([2]; 1 mM) | Number of cells having neurites with a length at least two times the diameter of each cell/total number of cells ([2]; 0.3 mM)
CN(C(=O)c1cccnc1)c1ccnc(N2CCC(c3ccccc3)CC2)n1 [Compound 2140] | > 1000 mg/kg | 5.4 ± 3.9% | 17.0 ± 1.2% |  | 
CN(C(=O)c1ccccc1)c1ccnc(N2CCCC3CCCCC32)n1 (centres unmarked) [Compound 2156] | > 1000 mg/kg | 8.6 ± 1.0% | 19.6 ± 5.3% |  | 
CN(C(=O)c1ccccc1)c1ccnc(N2CCC(CO)CC2)n1 [Compound 2164] | > 1000 mg/kg |  | 4.6 ± 1.1% | 11.7 ± 0.7% | 
CN(C(=O)c1ccc(N)cc1)c1ccnc(N2CCC(c3ccccc3)CC2)n1 [Compound 2182] | 500 to 1000 mg/kg | 8.0 ± 3.2% | 2.7 ± 0.9% |  | 
CN(C(=O)N1CCCCC1)c1ccnc(N2CCC(c3ccccc3)CC2)n1 [Compound 2210] | 500 to 1000 mg/kg | 9.5 ± 2.0% | 9.5 ± 1.9% |  | 
CN(C(=O)Nc1ccccc1)c1ccnc(N2CCC(c3ccccc3)CC2)n1 [Compound 2218] | 500 to 1000 mg/kg | 9.7 ± 1.8% | 11.4 ± 6.1% |  | 
CCOC(=O)N(C)c1ccnc(N2CCC(c3ccccc3)CC2)n1 [Compound 2242] | 500 to 1000 mg/kg | 3.3 ± 0.9% | 24.8 ± 2.9% |  | 
CN(C(=O)Cc1ccccc1)c1ccnc(N2CCC(c3ccccc3)CC2)n1 [Compound 2250] | 500 to 1000 mg/kg |  | 10.9 ± 3.9% |  | 19.2 ± 1.0%
CN(Cc1ccccc1)c1ccnc(N2CCC(c3ccccc3)CC2)n1 [Compound 2278] | 500 to 1000 mg/kg | 13.9 ± 6.3% | 12.5 ± 1.3% |  | 
CCN(CC)C(=O)N(C)c1ccnc(N2CCC(c3ccccc3)CC2)n1 [Compound 2302] | 500 to 1000 mg/kg | 8.0 ± 2.7% | 8.2 ± 4.7% |  | 
CN(C(=O)c1ccccc1)c1ccnc(N2CCC(C(=O)c3ccc(Cl)cc3)CC2)n1 [Compound 2310] | 500 to 1000 mg/kg |  | 8.3 ± 1.8% |  | 12.1 ± 3.6%
CON(C(=O)c1ccccc1)c1ccnc(N2CCC(c3ccccc3)CC2)n1 [Compound 2318] | 500 to 1000 mg/kg | 7.7 ± 1.4% | 35.1 ± 1.3% | 8.8 ± 1.3% | 18.6 ± 5.2%
CN(C(=O)N1CCOCC1)c1ccnc(N2CCC(c3ccccc3)CC2)n1 [Compound 2326] | 500 to 1000 mg/kg | 4.6 ± 1.4% | 8.3 ± 2.6% |  | 
CN(C(=O)Oc1ccccc1)c1ccnc(N2CCC(c3ccccc3)CC2)n1 [Compound 2334] | > 1000 mg/kg | 13.2 ± 0.2% | 16.7 ± 0.8% |  | 
CN(C(=O)c1ccccc1)c1ccnc(NC2CN3CCC2CC3)n1 (centres unmarked) [Compound 2342] | 500 to 1000 mg/kg | 5.9 ± 2.1% | 11.4 ± 1.4% |  | 
